Laboratory results reported in PubChem BioAssay AID1259407 (Chemical Carcinogenesis Research Information System (CCRIS), 2018).
Calls of active or inactive are those of the source. No rule for the calls is given here.

Tested on: CCRIS mutagenicity, Ames/micronucleus/aberration tests
Assay: CCRIS mutagenicity studies

Measured: mutagenic call

Nc1ccc(S(=O)(=O)c2ccc(N)cc2)cc1
inactive: Test System: AMES SALMONELLA TYPHIMURIUM, Strain/Indicator: TA98, Metabolic Activation: NONE, Method: PREINCUBATION inactive; negative | Test System: AMES SALMONELLA TYPHIMURIUM, Strain/Indicator: TA98, Metabolic Activation: NONE, Method: STANDARD PLATE inactive; negative | Test System: AMES SALMONELLA TYPHIMURIUM, Strain/Indicator: TA98, Metabolic Activation: RAT, LIVER, S-9, PCB, Method: STANDARD PLATE inactive; negative | Test System: AMES SALMONELLA TYPHIMURIUM, Strain/Indicator: TA100, Metabolic Activation: NONE, Method: PREINCUBATION inactive; negative | Test System: AMES SALMONELLA TYPHIMURIUM, Strain/Indicator: TA100, Metabolic Activation: NONE, Method: STANDARD PLATE inactive; negative | Test System: AMES SALMONELLA TYPHIMURIUM, Strain/Indicator: TA100, Metabolic Activation: RAT, LIVER, S-9, PCB, Method: STANDARD PLATE inactive; negative | Test System: E. COLI, Strain/Indicator: WP2 UVRA, Metabolic Activation: HAMSTER, LIVER, S-9, AROCLOR 1254, Method: STANDARD PLATE inactive; negative | Test System: E. COLI, Strain/Indicator: WP2 UVRA, Metabolic Activation: HAMSTER, LIVER, S-9, Method: STANDARD PLATE inactive; negative | Test System: E. COLI, Strain/Indicator: WP2 UVRA, Metabolic Activation: MOUSE, LIVER, S-9, AROCLOR 1254, Method: STANDARD PLATE inactive; negative | Test System: E. COLI, Strain/Indicator: WP2 UVRA, Metabolic Activation: MOUSE, LIVER, S-9, Method: STANDARD PLATE inactive; negative | Test System: E. COLI, Strain/Indicator: WP2 UVRA, Metabolic Activation: NONE, Method: STANDARD PLATE inactive; negative | Test System: E. COLI, Strain/Indicator: WP2 UVRA, Metabolic Activation: RAT, LIVER, S-9, AROCLOR 1254, Method: STANDARD PLATE inactive; negative | Test System: E. COLI, Strain/Indicator: WP2 UVRA, Metabolic Activation: RAT, LIVER, S-9, Method: STANDARD PLATE inactive; negative
